For orientation: melting point means the temperature, or range, at which the solid turns liquid.

Compound `CNC(=O)C(=NOC)c1ccccc1COc1ccc(Sc2ccccc2)cn1` showed a melting point of 95 to 96 °C.

Compound `O=C(Nc1ccc(N2CCN(Cc3ccccc3)CC2)cc1)c1ccccc1-c1ccccc1` came in with a melting point of 162 °C.

`CC(C(=O)O)c1cccs1` (configuration not stated) yielded a melting point of 75 to 75.5 °C.

Regarding `COC(=O)N(C(=O)CC(O)(Cn1cncn1)c1ccc(Cl)cc1Cl)C(=O)OC` (configuration not stated), the melting point is 155 to 156 °C.

`O=C(NC(=O)c1c(Cl)cccc1Cl)Nc1ccc(C(F)(F)F)cc1` displayed a melting point of 200 °C.

For the compound `CCN1CCN(c2nc(-c3ccc(OC)cc3)nc3sc(C#N)c(C)c23)CC1`, the melting point lay within 173 to 175 °C.

Regarding `CC(C)Oc1ccc(OC(C)C)c(OCCN2C(=O)c3ccccc3C2=O)c1`, the melting point is 66 °C.

The compound `O=C(O)c1ccccc1COc1cccc(Br)c1` had a melting point of 158 to 159 °C.

Compound `COc1c(C(=O)O)nc(-c2ccc(Cl)c(OC)c2F)c(F)c1N` came in with a melting point of 143 to 146 °C.

Compound `Cc1cccc2c1NC(C(Cl)(Cl)Cl)OC2` (configuration not stated) registered a melting point of 69 to 70 °C.

Compound `Cc1c(C)c2c(c(C)c1OCc1ccncc1)C(c1ccc(C(C)C)cc1)C1(CCN(C)CC1)O2` (configuration not stated) registered a melting point of 96 to 98 °C.

Consider `COCc1c(C(=O)c2ccccc2)ncc2[nH]c3cccc(Cc4ccccc4Cl)c3c12`, for which the melting point was in the range of 147 to 148 °C.

In turn, `CC(C)(C)OC(=O)Nc1ccc(CC(=O)N2CCC(c3[nH]nc4c3C(=O)c3c(NC(=O)NN5CCOCC5)cccc3-4)CC2)cc1` displayed a melting point of 177 to 178 °C.

In turn, `COCC(NC(=O)OCc1ccccc1)C(=O)NCc1ccccc1` (configuration not stated) gave a melting point of 112 to 114 °C.

`CSc1nc2ccccc2n2cc(-c3ccccc3)cc12` returned a melting point of 132 °C.

`CSc1c(O)ccc2c1[nH]c1ccccc12`: the melting point was 137 to 138 °C.

For `CCOC(=O)C(NC(=O)c1ccc(OC)cc1)C(C)=O` (configuration not stated), the melting point was 67 to 69 °C.

`CCC1c2cccn2-c2ccc(C(F)(F)F)cc2N1S(=O)(=O)c1ccc(OC)c(C)c1` (configuration not stated) came in with a melting point of 151 to 154 °C.

For `CSC(=S)C1(c2ccccn2)OCCCS1` (configuration not stated), the melting point came out at 116 °C.

In the case of `Cn1cc(C2=CC(=O)NC2=O)c2ccccc21`, the melting point lay in the range of 229 to 231 °C.

Compound `Fc1ccc(Nc2ccnc(Cl)n2)cc1` returned a melting point of 172 to 174 °C.

For the compound `CS(=O)(=O)Nc1cc(C(O)CNC2CCN(c3ccc(CC4SC(=O)N(CC(=O)O)C4=O)cc3)CC2)ccc1O` (configuration not stated), the melting point lay within 158 to 160 °C.

As to `O=C(NCCCSc1ccncc1)c1cccs1`, the melting point is 112 to 113 °C.

In turn, `Cc1c(-c2ccc3c(c2)N(C)C(=O)CS3)nc2ccccn12` came in with a melting point of 191 °C.

As for `CCOCCOc1ccc(-c2nc(C(=O)Nc3nccs3)c(-c3ccc(Cl)cc3)[nH]2)cc1`, the melting point turned out to be 115 °C.

The compound `CN(C)S(=O)c1nc2ccccc2s1` (configuration not stated) gave a melting point of 121 to 122 °C.

Compound `C=CCN(c1ccc(OC)cc1)S(=O)(=O)c1c(F)c(F)c(F)c(F)c1F` showed a melting point of 59 to 60 °C.

For the compound `COC1=CC2(C)CCc3c(OC)ccc(OC)c3C2=CC1=O` (configuration not stated), the melting point lay in the range of 184 to 186 °C.

On to `NNc1ccc(-c2nnn(Cc3ccccc3)n2)cc1`, for which the melting point fell in the range of 182 to 185 °C.

`O=C(CO)c1ccc(-c2ccccc2)cc1` registered a melting point of 130 to 132 °C.

For the compound `CCOC(=O)[C@H](CSCCc1ccccc1)NC(=O)C(CSC(C)=O)Cc1ccccc1` (some centres not stated), the melting point is 63 to 64 °C.

Turning to `O=c1[nH]c(=O)c2ccc(C(c3ccccc3)n3ccnc3)cc2[nH]1` (configuration not stated), the melting point amounted to 287 °C.

Regarding `CCCCOCCOc1ccc(-c2ccc3c(c2)C=C(C(=O)Nc2ccc(CC(=O)c4nccn4CCC)cc2)CCN3CC(C)C)cc1`, the melting point was 136 to 138 °C.

Compound `O=c1c2cccnc2c(-c2cccc(Cl)c2)nn1Cc1ccsc1` returned a melting point of 165 to 166 °C.

`N#CC(=NOS(=O)(=O)c1ccc(C(=O)O)cc1)c1ccccc1` came in with a melting point of 250 to 251 °C.

Take `COc1c(I)c(OC)c2ccccc2c1C(=O)OCc1ccccc1`: the melting point was in the range of 80 to 83 °C.

As for `C=C(C)COc1ccc(OC)cc1-c1nc2ccccc2[nH]1`, the melting point fell in the range of 144 to 148 °C.

As to `CC(C)SC1CCC(=O)N1` (configuration not stated), the melting point fell in the range of 77 to 79 °C.

`Cc1ccc(Oc2ccc(-n3cccc3)cc2)c(O)c1`: the melting point lay in the range of 95 to 96 °C.

For the compound `Cc1ccc(S(=O)(=O)N2CCN(S(=O)(=O)c3ccc(C)cc3)CC(=O)NCC(C3CCCCC3)NC(=O)CN(S(=O)(=O)c3ccc(C)cc3)CC2)cc1` (configuration not stated), the melting point is 224 °C.

The compound `COc1ccc(-c2cnc3cc4cnn(CCO)c4cc3n2)cc1F` gave a melting point of 192 to 195 °C.

On to `Clc1ccc(CNN2C=CN=CC2)cc1`, for which the melting point lay in the range of 86 to 87 °C.

`CN1C(=O)[C@](C)(C(=O)O)Oc2ccccc21` registered a melting point of 139 to 142 °C.

`CC(C)NC(=O)c1ccc2[nH]cc(CCNC(=O)OCc3ccccc3)c2c1` had a melting point of 136 to 137 °C.

Regarding `CCCCN(CCCC)CCCNc1ccccc1[N+](=O)[O-]`, the melting point came to 79 °C.

As for `CC1(C)CC(=O)NC2=C1c1ccc(Cl)cc1CC2`, the melting point came out at 213 °C.

`CC(=NC1CCCCC1)N(C)C=Nc1ccc(C)cc1C`: the melting point was 37 to 39 °C.

Regarding `Cc1noc(CCCCCCCOc2ccc(C3=NCCO3)cc2Cl)c1CO`, the melting point lay in the range of 53 to 54 °C.

Turning to `COc1cn2nc(Cl)ccc2n1`, the melting point was 134 to 136 °C.

For `CCOC(=O)NNc1ccc(-c2ccc(Cl)cc2)nn1`, the melting point was in the range of 190 to 192 °C.

`Cc1cc(C)cc(Cc2[nH]c(=O)[nH]c(=O)c2C(C)C)c1` returned a melting point of 213 to 214 °C.

The compound `CCOC(=O)c1csc2nc(C(=O)OC)cn12` had a melting point of 187 to 189 °C.

For `CNC(=O)C[C@@H](NC(=O)OCc1ccccc1)C(C)C`, the melting point lay in the range of 190 to 191 °C.

In turn, `O=c1[nH]c(=O)c2ccccc2o1` displayed a melting point of 132 to 133 °C.

`CCOc1ccc2c(c1)n(C1CCCCC1)c(=O)n2Cc1ccc(N)cc1OC` showed a melting point of 191 °C.

As to `CCOC(=O)N(CC)c1cccc(-c2ccc3nnc(C)n3n2)c1`, the melting point is 132 to 135 °C.

`O=C(O)CCNc1ccccc1CNC(=O)C1Cc2ccccc2N1S(=O)(=O)c1ccc(-c2ccc(F)cc2F)cc1` (configuration not stated) registered a melting point of 106 to 110 °C.

For the compound `Cc1cc(C)cc(N2C(=O)NC(C)(C3CC3)C2=O)c1` (configuration not stated), the melting point came to 121 °C.

Compound `Cc1nc(Cl)c2ncn(-c3ccc(C(C)C)cc3Br)c2n1` gave a melting point of 49 to 52 °C.

Compound `C=C(C(=O)O)c1ccccc1OC` gave a melting point of 144 °C.

Compound `COC(=O)C1CCC2C3CCC4CC(O)C=CC4(C)C3C(=O)CC12C` (configuration not stated) returned a melting point of 172 to 175 °C.

Regarding `Cc1sc(-c2ccccc2)nc1COc1ccc(COc2nn(C)cc2CC(=O)O)cn1`, the melting point was in the range of 140 to 141 °C.

For the compound `O=C1c2ccccc2C(=O)N1OCCOCc1ccccc1F`, the melting point was in the range of 62 to 64 °C.

The compound `COCC1OC(n2c(Cl)nc3cc(Cl)c(Cl)cc32)C(O)C1O` (configuration not stated) yielded a melting point of 104 to 105 °C.

`COc1cc2c(N)nc(Cl)nc2c(OC)c1OC` yielded a melting point of 244 to 245 °C.

The compound `C1=C(/C=C/c2ccccc2)CCN(Cc2c[nH]c3ncccc23)C1` had a melting point of 210 to 212 °C.

The compound `CCCCCCCCCCCCCCCCCCOc1ccc(C(=O)OC)c(O)c1` registered a melting point of 61 to 64 °C.

Compound `CCCNc1ccc(Cl)cc1Cl` registered a melting point of 121 °C.

As for `CSc1ccc(-c2nnc(Cl)cc2-c2ccccc2)cc1`, the melting point turned out to be 158 °C.

`CN1CCN(c2ccc(Nc3ncc4ccc(-c5ccc(S(C)(=O)=O)cc5)n4n3)cc2)CC1` came in with a melting point of 234 to 238 °C.

In the case of `OC1CSC(Oc2cccnc2Br)C(O)C1O` (configuration not stated), the melting point is 151 °C.

In the case of `NNC(=O)c1ccnc2[nH]c(CCc3ccccc3)cc12`, the melting point was in the range of 233 to 234 °C.

The compound `O=[N+]([O-])c1ccc(S(=O)(=O)OS(=O)(=O)c2ccc([N+](=O)[O-])cc2)cc1` yielded a melting point of 171 to 172 °C.

`NC(=O)c1ccc(-c2cccc3cc(Cc4cccc(C(F)(F)F)c4)sc23)cc1`: the melting point lay within 175 to 176 °C.

`O=C(Oc1cc(/C=C/c2ccc(O)cc2)cc(OC(=O)c2cc(O)c(O)c(O)c2)c1)c1cc(O)c(O)c(O)c1`: the melting point lay within 210 to 212 °C.

As for `COCCOC(=O)NC(=O)CCCCCN=C=O`, the melting point was found to be 77 °C.

On to `N#Cc1ccc(S(=O)(=O)N2CCn3c(c(C(N)=O)c(Cl)c3-c3ccccc3)C2)cc1`, for which the melting point was in the range of 205 to 206 °C.

Take `Nc1scc2c1C(=O)c1cc(Cl)c(Cl)cc1-2`: the melting point is 272 °C.

On to `Cc1nc(-c2ccc(OC(C)C)c([N+](=O)[O-])c2)sc1C(=O)O`, for which the melting point was in the range of 211 to 213 °C.

With `O=c1[nH]c2ccccc2c(=O)n1CCCCCn1ccnc1`, the melting point was in the range of 160 to 162 °C.

The compound `COc1cc(C(C)=NNC(=N)NCc2ccccc2)cc(OC)c1OC` had a melting point of 107 to 109 °C.

As for `CCNC(=O)NC1(c2ccc(C(C)C)cc2OC)C(=O)c2ccccc2C1=O`, the melting point was 267 to 269 °C.

In turn, `CCOC(=O)c1cn(Cc2ccc(F)cc2)c2ccc(C(C)=O)cc2c1=O` showed a melting point of 207 to 209 °C.

In turn, `N#Cc1nn(-c2c(Cl)cc(C(F)(F)F)cc2Cl)c(N)c1-c1cccc([N+](=O)[O-])c1` had a melting point of 212 to 214 °C.

In turn, `CC(C)[C@H]1CC[C@H](C(=O)COS(=O)(=O)c2ccccc2)CC1` had a melting point of 48 to 49 °C.

Compound `CCOc1ccc2c(c1)CCC(Oc1ncnc3ccccc13)C2` (configuration not stated) returned a melting point of 115 to 117 °C.

Compound `Cc1ccc(C(=O)CCCCCBr)cc1C` registered a melting point of 61 to 63 °C.

`CCOC(=O)C1=C(N)NC(N)=C(C(=O)OCC)C1c1ccccc1[N+](=O)[O-]` came in with a melting point of 142 °C.

In the case of `COc1ccc(C=C(C#N)c2ccccn2)cc1OC`, the melting point was 112 °C.

On to `Nc1ccnn1-c1c(Cl)cc(C(F)(F)F)cc1Cl`, for which the melting point was 90 to 94 °C.

The compound `COc1ccccc1OC(=O)c1ncn2c1[C@@H]1CCCN1C(=O)c1c(Cl)cccc1-2` yielded a melting point of 205 to 206 °C.

As to `O=C(NC1(C(=O)O)CC1)OCCOC(=O)C1CCCCC1`, the melting point is 124 to 125 °C.
